Test results taken from ChEMBL document CHEMBL1201862, “PubChem BioAssay data set” (2004).
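Briefly, cells in 96-well plates were exposed to five compound concentrations for 48 h, and endpoints were estimated by linear interpolation. GI50 marks 50% less growth.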 Activity calls are given as the source filed them. Cut-off read from the data, not from the text of the source: active = GI50 up to about 1.1 µM and inactive = higher.

Legend:
Test in all cases: inhibition of tumour cell growth, NCI panel, 48 h
HCC 2998 = test system: HCC 2998
LOX IMVI = test system: LOX IMVI
786-0 = test system: 786-0
OVCAR-8 = test system: OVCAR-8
Hs-578T = test system: Hs-578T
RPMI-8226 = test system: RPMI-8226
SNB-19 = test system: SNB-19
NCI-H522 = test system: NCI-H522
KM12 = test system: KM12
HCT-116 = test system: HCT-116
NCI-H460 = test system: NCI-H460
SK-MEL-5 = test system: SK-MEL-5
SF-295 = test system: SF-295
SK-MEL-28 = test system: SK-MEL-28
EKVX = test system: EKVX
HCT-15 = test system: HCT-15
SN12C = test system: SN12C
MDA-MB-435 = test system: MDA-MB-435
UACC-257 = test system: UACC-257
BT-549 = test system: BT-549
COLO 205 = test system: COLO 205
NCI/ADR-RES = test system: NCI/ADR-RES
Malme-3M = test system: Malme-3M
K562 = test system: K562
HL-60 = test system: HL-60
MDA-MB-231 = test system: MDA-MB-231
SK-OV-3 = test system: SK-OV-3
M14 = test system: M14
A498 = test system: A498
CAKI-1 = test system: CAKI-1
A549 = test system: A549
T47D = test system: T47D
OVCAR-3 = test system: OVCAR-3
MOLT-4 = test system: MOLT-4
MCF7 = test system: MCF7
OVCAR-5 = test system: OVCAR-5
SF-539 = test system: SF-539
SW-620 = test system: SW-620
DU-145 = test system: DU-145
UO-31 = test system: UO-31
TK-10 = test system: TK-10
U-251 = test system: U-251
HOP-62 = test system: HOP-62
NCI-H23 = test system: NCI-H23
HT-29 = test system: HT-29
MDA-N = test system: MDA-N
SK-MEL-2 = test system: SK-MEL-2
SF-268 = test system: SF-268
SR = test system: SR
PC-3 = test system: PC-3
CCRF-CEM = test system: CCRF-CEM
UACC-62 = test system: UACC-62
IGROV-1 = test system: IGROV-1
ACHN = test system: ACHN
NCI-H226 = test system: NCI-H226
OVCAR-4 = test system: OVCAR-4
SNB-75 = test system: SNB-75
RXF 393 = test system: RXF 393

Compound: COc1c(O)c(OC)c2oc(-c3ccc(O)cc3)c(OC)c(=O)c2c1O
- GI50 (HCC 2998): 32 µM (inactive)
- GI50 (LOX IMVI): 30.9 µM (inactive)
- GI50 (786-0): 17.8 µM (inactive)
- GI50 (OVCAR-8): 38 µM (inactive)
- GI50 (Hs-578T): 18.4 µM (inactive)
- GI50 (RPMI-8226): 56.9 µM (inactive)
- GI50 (SNB-19): > 100 µM (inactive)
- GI50 (NCI-H522): 26.1 µM (inactive)
- GI50 (KM12): 88.5 µM (inactive)
- GI50 (HCT-116): 46.3 µM (inactive)
- GI50 (NCI-H460): 45.7 µM (inactive)
- GI50 (SK-MEL-5): 17.4 µM (inactive)
- GI50 (SF-295): > 100 µM (inactive)
- GI50 (SK-MEL-28): 81.8 µM (inactive)
- GI50 (EKVX): 97.5 µM (inactive)
- GI50 (HCT-15): 28.1 µM
- GI50 (SN12C): 70.6 µM (inactive)
- GI50 (MDA-MB-435): 33.6 µM (inactive)
- GI50 (UACC-257): 76.2 µM (inactive)
- GI50 (BT-549): 43.2 µM (inactive)
- GI50 (COLO 205): 99.5 µM (inactive)
- GI50 (NCI/ADR-RES): 61 µM (inactive)
- GI50 (Malme-3M): 13.4 µM (inactive)
- GI50 (K562): 55.6 µM (inactive)
- GI50 (HL-60): > 100 µM (inactive)
- GI50 (MDA-MB-231): 42.5 µM (inactive)
- GI50 (SK-OV-3): 17 µM (inactive)
- GI50 (M14): 47.2 µM (inactive)
- GI50 (A498): 30.3 µM (inactive)
- GI50 (CAKI-1): 27.8 µM (inactive)
- GI50 (A549): 44.2 µM (inactive)
- GI50 (T47D): 10.2 µM (inactive)
- GI50 (OVCAR-3): 14.8 µM (inactive)
- GI50 (MOLT-4): 57 µM (inactive)
- GI50 (MCF7): 41.7 µM (inactive)
- GI50 (OVCAR-5): > 100 µM (inactive)
- GI50 (SF-539): 55.3 µM (inactive)
- GI50 (SW-620): 34.5 µM (inactive)
- GI50 (DU-145): 29.3 µM (inactive)
- GI50 (UO-31): 34.7 µM (inactive)
- GI50 (TK-10): 61.5 µM (inactive)
- GI50 (U-251): 23.9 µM (inactive)
- GI50 (HOP-62): 24.4 µM (inactive)
- GI50 (NCI-H23): 30.8 µM (inactive)
- GI50 (HT-29): 32.4 µM (inactive)
- GI50 (MDA-N): 79.4 µM (inactive)
- GI50 (SK-MEL-2): 42.5 µM (inactive)
- GI50 (SF-268): 8.73 µM (inactive)
- GI50 (SR): 60.1 µM (inactive)
- GI50 (PC-3): 48.6 µM (inactive)
- GI50 (CCRF-CEM): 37.5 µM (inactive)
- GI50 (UACC-62): 22.7 µM (inactive)
- GI50 (IGROV-1): 17.8 µM (inactive)
- GI50 (ACHN): 33.6 µM (inactive)
- GI50 (NCI-H226): 50.9 µM (inactive)

Compound: CC1(C)Oc2ccc(Cl)cc2C12CC2
- GI50 (HCC 2998): 15.8 µM (inactive)
- GI50 (LOX IMVI): 16.6 µM (inactive)
- GI50 (786-0): 16.7 µM (inactive)
- GI50 (OVCAR-8): 14.7 µM (inactive)
- GI50 (Hs-578T): 24.4 µM (inactive)
- GI50 (RPMI-8226): 16.1 µM (inactive)
- GI50 (SNB-19): 16.5 µM (inactive)
- GI50 (KM12): 17.7 µM (inactive)
- GI50 (HCT-116): 14.7 µM (inactive)
- GI50 (NCI-H460): 17.8 µM (inactive)
- GI50 (SK-MEL-5): 18 µM (inactive)
- GI50 (SF-295): 14 µM (inactive)
- GI50 (OVCAR-4): 13.8 µM (inactive)
- GI50 (SK-MEL-28): 17.9 µM (inactive)
- GI50 (EKVX): 10.8 µM (inactive)
- GI50 (HCT-15): 17.1 µM
- GI50 (SN12C): 18.8 µM (inactive)
- GI50 (MDA-MB-435): 15.5 µM (inactive)
- GI50 (UACC-257): 15.1 µM (inactive)
- GI50 (BT-549): 21.1 µM (inactive)
- GI50 (COLO 205): 14 µM (inactive)
- GI50 (NCI/ADR-RES): 18.4 µM (inactive)
- GI50 (Malme-3M): 23.4 µM (inactive)
- GI50 (K562): 15.5 µM (inactive)
- GI50 (HL-60): 18.5 µM (inactive)
- GI50 (MDA-MB-231): 16.6 µM (inactive)
- GI50 (SK-OV-3): 21.7 µM (inactive)
- GI50 (M14): 18.8 µM (inactive)
- GI50 (A498): 15.1 µM (inactive)
- GI50 (CAKI-1): 15.6 µM (inactive)
- GI50 (A549): 18.9 µM (inactive)
- GI50 (T47D): 22.6 µM (inactive)
- GI50 (OVCAR-3): 13.8 µM (inactive)
- GI50 (MOLT-4): 17.1 µM (inactive)
- GI50 (MCF7): 16.9 µM (inactive)
- GI50 (OVCAR-5): 17.4 µM (inactive)
- GI50 (SF-539): 31.5 µM (inactive)
- GI50 (SNB-75): 16.8 µM (inactive)
- GI50 (SW-620): 11.8 µM (inactive)
- GI50 (DU-145): 15.8 µM (inactive)
- GI50 (UO-31): 16.9 µM (inactive)
- GI50 (TK-10): 18.4 µM (inactive)
- GI50 (U-251): 15.3 µM (inactive)
- GI50 (HOP-62): 18.2 µM (inactive)
- GI50 (NCI-H23): 20.1 µM (inactive)
- GI50 (HT-29): 17.6 µM (inactive)
- GI50 (MDA-N): 17.8 µM (inactive)
- GI50 (SK-MEL-2): 16 µM (inactive)
- GI50 (RXF 393): 15.6 µM (inactive)
- GI50 (SF-268): 16.6 µM (inactive)
- GI50 (SR): 18.1 µM (inactive)
- GI50 (PC-3): 13.9 µM (inactive)
- GI50 (CCRF-CEM): 22.7 µM (inactive)
- GI50 (UACC-62): 40.5 µM (inactive)
- GI50 (IGROV-1): 14.7 µM (inactive)
- GI50 (ACHN): 16.3 µM (inactive)
- GI50 (NCI-H226): 13.6 µM (inactive)
